Assays:
[1] = tested on: male rats; assay: Facial formalin model of tonic pain (formalin injection into the lip, facial wiping/grooming); type: in vivo; conditions: rat lip formalin
Experimental: Time spent grooming was determined over 45 minutes and grouped in 3 minute bins. […] The area under the curve (AUC) for each compound or vehicle was approximated using the trapezodial method. % Reduction=[(Vehicle AUC−Treatment AUC)/Vehicle AUC)]×100%. Data are presented as the mean±1 SEM. (n=6-8 Rats/group).
The paw formalin model is widely used to assess tonic pain efficacy of putative and known analgesic treatments.

[2] = tested on: rats; conditions: intraperitoneal 3.0 mg/kg or intranasal 4.0 mg/kg, regardless of route
Experimental: Compounds were administered 20-30 minutes prior to the charcoal meal (2 mL/rat). Rats were sacrificed 30 minutes after receiving the meal. % transit was calculated as the ratio of the travel distance of the charcoal marker divided by the full length of the small intestine multiplied by 100%. Data are presented as the mean±1 SEM. (n=8 Rats/group).
In order to determine whether intransasal N/OFQ, which has a similar analgesic efficacy to that of strong opiates, would also produce constipation, the effects of intranasal N/OFQ on gastric transit time was assessed. […] Stomach and small intestine were immediately removed and both the total length of small intestine and the distance traveled by the charcoal were recorded. Percent transit was calculated as the ratio of charcoal distance divided by total small intestine length multiplied by 100%.

[3] = biological target: T1, NOP receptor (Rattus norvegicus, UniProt P35370); assay: Effect of nociceptin antagonist on intranasal nociceptin induced reduction of thermal nociception; type: in vivo; conditions: subcutaneous 10.0 mg/kg, 45 minutes before i.n. nociceptin (5.0 mg/kg); rat cheek and hindpaw
T1 construct: from tissue; host or cells: whole living male Sprague-Dawley rats (in vivo)
Excerpt: This experiment was to verify the binding site of nociceptin induced analgesia in a thermal nociceptive rodent model.
(A) Groups of six rats per test run were lightly anesthetized with urethane (1.0 g/kg, i.p., titrated to minimal activity in the absence of a stimulus) (Sherman and Loomis et al, 1996). The left and right cheeks and right hindpaw were blackened with India ink to allow even heat distribution.
(B) Each 200-300 g male Sprague-Dawley rat was subjected to varying heat intensities on the left and right check and right hindpaw for selective testing of A-delta vs. C fiber nociception (Yeomans et al., 1996). • For C-fiber testing, the heat intensity was adjusted by altering the supply voltage of a focused projector lamp until a withdrawal latency between 9-13 seconds was observed. […] To reduce the potential for tissue damage, a cut-off latency of 20 seconds was used after which the stimulus was terminated. […]
(E) Withdrawal latencies were measured in response to radiant heat stimulation of the left and right cheeks, followed by similar measurements of response latencies for each hindpaw. […]
The efficacy of nasal application of nociceptin was measured in rats pretreated with subcutaneous nociceptin antagonist in comparison to rats pre-treated with subcutaneous saline vehicle. […]

T1 sequence (P35370 whole entry): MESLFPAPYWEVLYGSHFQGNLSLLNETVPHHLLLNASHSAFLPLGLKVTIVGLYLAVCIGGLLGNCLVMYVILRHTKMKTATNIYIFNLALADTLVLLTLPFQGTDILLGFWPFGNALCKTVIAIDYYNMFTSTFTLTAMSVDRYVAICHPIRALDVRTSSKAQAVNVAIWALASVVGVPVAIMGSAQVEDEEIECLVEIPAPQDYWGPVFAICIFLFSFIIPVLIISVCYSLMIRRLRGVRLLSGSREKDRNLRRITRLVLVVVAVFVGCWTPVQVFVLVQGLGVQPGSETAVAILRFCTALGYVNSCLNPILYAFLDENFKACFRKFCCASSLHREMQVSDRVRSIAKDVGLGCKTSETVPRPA

CN1CC[C@]23c4c5ccc(O)c4O[C@H]2[C@@H](O)C=C[C@H]3[C@H]1C5 [morphine]
maximal inhibition of facial wiping behavior ([1]; 3 mg/kg i.n.): 80.2%
effect on intestinal transit (percent transit) [2]: considerable slowing of transit

Cc1cccc2c1CC[C@@H](CN1CCC(c3c(Cl)cccc3Cl)CC1)C[C@H]2O [SB-612111, (−)-cis-1-methyl-7-[[4-(2,6-dichlorophenyl)piperidin-1-yl]-methyl]-6,7,8,9-tetrahydro-5H-benzocyclohepten-5-ol]
effect on analgesic activity of intranasal nociceptin [3]: apparent block of the analgesic activity of nociceptin

CNS(=O)(=O)Cc1ccc2[nH]cc(CCN(C)C)c2c1 [sumatriptan]
inhibition at 42 mg/kg ([1]; ip, 42 mg/kg i.p., read-out: inhibition of facial wiping behavior): 43.8%

— patent publication US9238053B2, “Methods for treatment of pain” (Nocicepta LLC, priority 2009, dated 2016)
